Converted amounts (≈) assume the structure as drawn. The source made the active and inactive calls. The calls are words filed in the database; no cut-off is given here.
Experiments:
BT-20 = assay: Growth inhibition of human BT20 cells by MTT assay; format: functional, cell-based
Biomphalaria glabrata = assay: Molluscicidal activity against Biomphalaria glabrata; format: functional
HeLa = assay: Cytotoxicity against human HeLa cells by MTT assay; format: functional, cell-based

In the case of `COc1cc2[nH]c3c(OC)c(OC)ccc3c(=O)c2c(OC)c1OC` [CUSCULINE], the “growth inhibition (GI)” value (BT-20) is reported as “Active”, the LC50 (Biomphalaria glabrata) is reported as 20 µg/mL (≈ 57.9 µM) and the IC50 (HeLa) is reported as 8.5 µg/mL (≈ 24.6 µM).
In the case of `COc1cc2[nH]c3c(OC)c(OC)ccc3c(=O)c2c(O)c1OC` [CUSPANINE], the “growth inhibition (GI)” value (BT-20) is reported as “Active”, the LC50 (Biomphalaria glabrata) is reported as 5 µg/mL (≈ 15.1 µM) and the IC50 (HeLa) is reported as 2.5 µg/mL (≈ 7.55 µM).

Source: ChEMBL document CHEMBL1149734, “Molluscicidal acridone alkaloids from Angostura paniculata: isolation, structures, and synthesis” (J Nat Prod, 1992)
